This note sets out measurements from patent publication US20260001849A1, “NOVEL B0AT1 INHIBITOR” (MITSUBISHI TANABE PHARMA CORPORATION, priority 2023, published 2026).

SMILES strings stand for the structures. Bounds are passed on as bounds.

For one assay, the target named is T1, Human BOAT1 (Homo sapiens, UniProt Q695T7).
T1 construct: expressed in transfected cells
T1 sequence (Q695T7 1-634): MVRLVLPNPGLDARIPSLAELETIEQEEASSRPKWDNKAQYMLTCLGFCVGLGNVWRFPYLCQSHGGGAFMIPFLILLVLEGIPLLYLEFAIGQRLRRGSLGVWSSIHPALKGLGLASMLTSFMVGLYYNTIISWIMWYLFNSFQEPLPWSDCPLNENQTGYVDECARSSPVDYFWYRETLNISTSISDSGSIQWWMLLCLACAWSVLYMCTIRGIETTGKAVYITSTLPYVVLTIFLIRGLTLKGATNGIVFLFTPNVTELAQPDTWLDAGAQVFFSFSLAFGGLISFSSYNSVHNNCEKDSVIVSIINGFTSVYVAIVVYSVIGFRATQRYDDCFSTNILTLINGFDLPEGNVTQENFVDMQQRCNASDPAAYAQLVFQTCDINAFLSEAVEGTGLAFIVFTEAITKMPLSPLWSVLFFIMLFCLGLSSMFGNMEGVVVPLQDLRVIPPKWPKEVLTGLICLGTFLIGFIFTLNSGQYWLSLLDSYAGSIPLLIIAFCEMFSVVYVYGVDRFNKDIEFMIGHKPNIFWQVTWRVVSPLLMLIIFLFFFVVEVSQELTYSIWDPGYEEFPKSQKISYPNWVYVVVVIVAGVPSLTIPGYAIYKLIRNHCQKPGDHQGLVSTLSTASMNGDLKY
Description: hBOAT1 inhibitory test (phenylalanine uptake). Particulars: Human BOAT1 stable expression CHO cells; [3H]-L-phenylalanine uptake, phenylalanine 0.25 mM; radioactivity after 100 to 200 min; read-out: hB0AT1 IC50. The assay is classed as cell-based. As for the experimental part: A test compound dissolved in dimethyl sulfoxide (DMSO) was added to a 96 well plate for solid phase radioactivity measurement containing a scintillator at the bottom of the well (final concentration of DMSO 0.5%). DMSO alone as a control and DMSO containing N-(4-bromophenyl)-3,5-dichloro-2-hydroxybenzamide (final concentration […]) for the measurement of BOAT1 non-specific uptake were similarly added at 0.5 μL per well. Human BOAT1 stable expression CHO cells suspended in a buffer (buffer containing 96 mM sodium chloride, 2 mM potassium chloride, 1.8 mM calcium chloride, 1 mM magnesium chloride, 0.01% bovine serum albumin, and 10 mM 2-[4-(2-hydroxyethyl)-1-piperazinyl]ethanesulfonic acid) were added by 90 μL to 75000 cells/well. After standing at ordinary temperature for 30 min or longer, the cells were subjected to a phenylalanine uptake experiment. A buffer containing L-phenylalanine and [3,4,5-3H]-L-phenylalanine was added by 10 μL per well (final concentration of phenylalanine 0.25 mM), and the radioactivity of the plate bottom surface at ordinary temperature was measured with a scintillation counter over time, and the radioactivity value after 100 to 200 min was analyzed.
A word on the IC50: it is the concentration that inhibits the measured activity by half. On to `C[C@H]1CN(CCCC(=O)O)C[C@H](c2ccccc2)N1C(=O)CNC(=O)/C=C/c1ccc(C(F)(F)F)cc1F` [I-370], for which the IC50 is 143 nM.
The same measure, in the same setting: for `C[C@@H]1CN(CCCC(=O)O)C[C@H](c2ccccc2)N1C(=O)CNC(=O)/C=C/c1ccc(C(F)(F)F)cc1F` [I-371] the value was 3380 nM; for `CNC(=O)Cc1cnn2c1CN(C(=O)CNC(=O)/C=C/c1ccc(C(F)(F)F)cc1)CC2` [I-374], 54 nM; for `CNC(=O)Cc1nc2c(s1)CCN(C(=O)CNC(=O)/C=C/c1ccc(C(F)(F)F)cc1F)C2` [I-376], 77 nM.
Same read-out and setting: for `CNC(=O)Cc1ccc2c(n1)CCN(C(=O)CNC(=O)/C=C/c1ccc(C(F)(F)F)cc1)C2` [I-377] the value was 48 nM; for `O=C(/C=C/c1ccc(C(F)(F)F)cc1F)NCC(=O)N1CCc2cc(Cc3nn[nH]n3)cc(Cl)c2C1` [I-378, (E)-N-[2-[8-chloro-6-(1,2,3λ4,4-tetraazacyclopenta-2,4-dien-5-ylmethyl)-3,4-dihydro-1H-isoquinolin-2-yl]-2-oxoethyl]-3-[2-fluoro-4-(trifluoromethyl)phenyl]prop-2-enamide], 232 nM.
The same measure, in the same setting: for `C[C@@H]1CN(C(=O)CNC(=O)/C=C/c2ccc(C(F)(F)F)cc2F)[C@@H](c2ccccc2)CN1CCCc1nn[nH]n1` [I-379, (E)-3-[2-fluoro-4-(trifluoromethyl)phenyl]-N-[2-[(2S,5R)-4-[3-(1,2,3λ4,4-tetraazacyclopenta-2,4-dien-5-yl)propyl]-5-methyl-2-phenylpiperazin-1-yl]-2-oxoethyl]prop-2-enamide] the value was 2520 nM.
For `C[C@@H]1CN(C(=O)CNC(=O)/C=C/c2ccc(C(F)(F)F)cc2F)[C@@H](c2ccc(C3CC3)cc2)CN1CCC(=O)O` [I-382, 3-[(2R,5S)-5-(4-cyclopropylphenyl)-4-[2-[[(E)-3-[2-fluoro-4-(trifluoromethyl)phenyl]prop-2-enoyl]amino]acetyl]-2-methylpiperazin-1-yl]propanoic acid], the IC50 was determined as 63 nM.

The assay is the same for the next values; noted with them: Human BOAT1 stable expression CHO cells; phenylalanine uptake, phenylalanine 0.25 mM; read-out: hB0AT1 IC50.
Turning to `CN(C)C(=O)Cc1cc(Cl)c2c(c1)CCN(C(=O)CNC(=O)/C=C/c1ccc(C(F)(F)F)cc1F)C2` [I-279], the IC50 was found to be 21 nM.
The same measure, in the same setting: for `O=C(/C=C/c1ccc(C(F)(F)F)cc1F)NCC(=O)N1CCc2cc(CC(=O)NCCO)cc(Cl)c2C1` [I-280] the value was 19 nM; for `CONC(=O)Cc1cc(Cl)c2c(c1)CCN(C(=O)CNC(=O)/C=C/c1ccc(C(F)(F)F)cc1F)C2` [I-281], 7 nM; for `CNC(=O)Cn1cc2c(n1)CN(C(=O)CNC(=O)/C=C/c1ccc(C(F)(F)F)cc1)CC2` [I-282], 700 nM.
As to `CNC(=O)Cn1ncc2c1CN(C(=O)CNC(=O)/C=C/c1ccc(C(F)(F)F)cc1)CC2` [I-283], the IC50 was determined as 256 nM.
On the same count and under the same terms, for `CNC(=O)Cc1nc2c(s1)CN(C(=O)CNC(=O)/C=C/c1ccc(C(F)(F)F)cc1F)CC2` [I-284] the value was 25 nM; for `C[C@@H]1CN(C(=O)CNC(=O)/C=C/c2ccc(C(F)(F)F)cc2F)[C@@H](c2ccccc2)CN1CC#CC(=O)O` [I-320], 352 nM; for `CNC(=O)Cc1cc(CC(=O)O)cc2c1CN(C(=O)CNC(=O)/C=C/c1ccc(C(F)(F)F)cc1F)CC2` [I-336], 661 nM.
For `C[C@@H]1CN(C(=O)CNC(=O)/C=C/c2ccc(C(F)(F)F)cc2F)[C@@H](c2ccccc2)CN1CCC(C)(C)C(=O)O` [I-344], the IC50 stood at 122 nM.
Same read-out and setting: for `CC(CCN1C[C@H](c2ccccc2)N(C(=O)CNC(=O)/C=C/c2ccc(C(F)(F)F)cc2F)C[C@H]1C)C(=O)O` (some centres unmarked) [I-345] the value was 1780 nM; for `C[C@@H]1CN(C(=O)CNC(=O)/C=C/c2ccc(C(F)(F)F)cc2F)[C@@H](c2ccccc2)CN1CC(C)(C)C(=O)O` [I-346], 1040 nM.
The same measure, in the same setting: for `CC(CN1C[C@H](c2ccccc2)N(C(=O)CNC(=O)/C=C/c2ccc(C(F)(F)F)cc2F)C[C@H]1C)C(=O)O` (some centres unmarked) [I-347] the value was 2690 nM.
The same measure, in the same setting: for `C[C@H]1[C@H](c2ccccc2)N(C(=O)CNC(=O)/C=C/c2ccc(C(F)(F)F)cc2F)CCN1CCCC(=O)O` [I-352] the value was 3260 nM; for `C[C@@H]1CN(C(=O)CNC(=O)/C=C/c2ccc(C(F)(F)F)cc2F)[C@@H](c2cccs2)CN1CCCC(=O)O` [I-357], 107 nM; for `CN1CCN(C(=O)CNC(=O)/C=C/c2ccc(C(F)(F)F)cc2F)CC1c1cccc(CC(=O)O)c1` (centres unmarked) [I-358], 223 nM.
As to `O=C(/C=C/c1ccc(C(F)(F)F)cc1F)NCC(=O)N1CCCC(N2CC[C@@H](C(=O)O)C2)C1` (some centres unmarked) [I-359], the IC50 was 1110 nM.
Still for that read-out and setting: for `O=C(/C=C/c1ccc(C(F)(F)F)cc1F)NCC(=O)N1CCCC(N2CC[C@H](C(=O)O)C2)C1` (some centres unmarked) [I-360] the value was 2860 nM.
In the case of `O=C(O)C[C@H]1CCN(C2CCCN(C(=O)CNC(=O)/C=C/c3ccc(C(F)(F)F)cc3F)C2)C1` (some centres unmarked) [I-361], the IC50 came to 879 nM.
On the same count and under the same terms, for `O=C(O)C[C@@H]1CCN(C2CCCN(C(=O)CNC(=O)/C=C/c3ccc(C(F)(F)F)cc3F)C2)C1` (some centres unmarked) [I-362] the value was 1400 nM; for `O=C(O)CCCN1CCN(C(=O)CNC(=O)/C=C/c2ccc(C(F)(F)F)cc2F)C(C2CCCCC2)C1` (centres unmarked) [I-365], 69 nM.
Still for that read-out and setting: for `O=C(O)CCCN1C[C@H](c2ccccc2)N(C(=O)CNC(=O)/C=C/c2ccc(C(F)(F)F)cc2F)C[C@H]1C(F)(F)F` [I-399] the value was 2890 nM; for `O=C(O)CCCN1CCN(C(=O)CNC(=O)/C=C/c2ccc(C(F)(F)F)cc2F)C(c2noc3ccccc23)C1` (centres unmarked) [I-400], 292 nM; for `O=C(O)CCCN1CCN(C(=O)CNC(=O)C=Cc2ccc(C(F)(F)F)cc2F)C(c2nc(-c3ccccc3)no2)C1` (centres unmarked) [I-402], 235 nM.
Same read-out and setting: for `O=C(O)CCCN1CCN(C(=O)CNC(=O)/C=C/c2ccc(C(F)(F)F)cc2F)C(c2cccnc2)C1` (centres unmarked) [I-403] the value was 1720 nM.

A further assay deals with T2, hERG channel (Homo sapiens, UniProt Q12809).
T2 construct: host or cells: CHO cells
T2 sequence (Q12809 whole entry): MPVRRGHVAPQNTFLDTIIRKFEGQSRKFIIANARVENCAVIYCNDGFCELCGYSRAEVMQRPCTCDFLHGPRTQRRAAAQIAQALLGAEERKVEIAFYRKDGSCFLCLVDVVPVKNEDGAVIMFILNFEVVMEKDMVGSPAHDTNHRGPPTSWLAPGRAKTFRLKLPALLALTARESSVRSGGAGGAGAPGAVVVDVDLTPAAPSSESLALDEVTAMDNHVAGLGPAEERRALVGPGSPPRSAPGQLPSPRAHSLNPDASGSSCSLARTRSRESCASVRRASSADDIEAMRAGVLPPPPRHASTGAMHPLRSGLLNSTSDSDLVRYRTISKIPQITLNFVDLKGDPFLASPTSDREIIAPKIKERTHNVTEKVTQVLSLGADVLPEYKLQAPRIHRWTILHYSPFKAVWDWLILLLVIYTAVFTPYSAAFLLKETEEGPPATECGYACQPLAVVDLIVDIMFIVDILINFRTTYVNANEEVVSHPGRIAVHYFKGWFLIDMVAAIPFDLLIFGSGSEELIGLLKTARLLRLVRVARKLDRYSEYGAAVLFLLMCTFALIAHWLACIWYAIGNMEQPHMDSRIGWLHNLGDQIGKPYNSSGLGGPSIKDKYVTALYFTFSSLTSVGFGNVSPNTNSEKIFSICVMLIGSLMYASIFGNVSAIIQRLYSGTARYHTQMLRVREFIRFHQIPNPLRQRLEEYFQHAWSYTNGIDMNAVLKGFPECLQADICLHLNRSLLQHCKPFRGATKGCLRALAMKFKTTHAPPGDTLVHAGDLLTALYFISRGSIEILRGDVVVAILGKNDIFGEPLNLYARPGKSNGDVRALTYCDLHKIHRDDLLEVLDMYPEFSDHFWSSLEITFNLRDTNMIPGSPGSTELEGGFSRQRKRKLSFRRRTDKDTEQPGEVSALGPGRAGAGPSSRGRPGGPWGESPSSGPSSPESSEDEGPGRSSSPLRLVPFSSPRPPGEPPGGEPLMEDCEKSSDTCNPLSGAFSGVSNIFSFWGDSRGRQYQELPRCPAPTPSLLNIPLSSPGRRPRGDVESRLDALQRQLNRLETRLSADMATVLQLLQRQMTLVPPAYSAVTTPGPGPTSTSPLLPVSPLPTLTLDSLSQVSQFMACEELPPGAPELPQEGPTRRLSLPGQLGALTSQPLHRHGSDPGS
The experiment in a line: hERG channel inhibitory activity, whole-cell patch clamp (auto-patch clamp system). The assay is classed as cell-based. Particulars: comparative example compounds of WO 2023/145804, read-out: hERG inhibition IC50. As for the experimental part: Evaluation of hERG (Human Ether-a-go-go Related Gene) Channel Inhibitory Activity
The hERG channel inhibitory activity of the compound of the present invention was measured using CHO cells (B′ SYS GmbH) forcibly expressing hERG channels involved in human rapidly active delayed rectifier potassium current (IKr) by the whole-cell patch clamp method using an auto-patch clamp system (SyncroPatch384PE).
Cell suspension, extracellular fluid, intracellular fluid, and measurement plate (NPC-384 plate) were placed in the auto-patch clamp system, and hERG current measurements were performed using the whole-cell patch clamp method. The voltage protocol was set to a holding potential of −80 mV, with a depolarizing pulse preceded by −90 mV (100 ms) and followed by −80 mV (100 ms).
The depolarizing pulse was […] (500 ms), and then the hERG peak current value obtained during the ramp phase was measured when the voltage was lowered to −80 mV over 100 ms. The protocol was applied at 5-second intervals for 5 minutes for each concentration.
SyncroPatch software (manufactured by Nanion) was used for data analysis. Four concentrations were applied incrementally for each test substance, and the average hERG Peak current value obtained from the last three stimuli of each applied concentration was used as the evaluation data. The IC50 value was calculated from the inhibition rate of the current at each concentration of each test substance relative to the pre-application value using Hill's equation (Hill equation) using the relevant software.
The same experiments were also performed using the example compounds described in WO 2023/145804 as comparative example compounds 1-4.
(In general: The hERG channel carries a current that helps repolarise heart muscle cells.)
For the compound `CN1CCN(C(=O)CNC(=O)/C=C/c2ccc(C(F)(F)F)cc2)C(c2ccccc2)C1` (centres unmarked) [Comparative Example compound 1, reference compound], the IC50 was found to be 2090 nM.
With `O=C(/C=C/c1ccc(C(F)(F)F)cc1)NCC(=O)N1CCNCC1` [Comparative Example compound 2, reference compound], the IC50 came out at 8720 nM.
Consider `CN1CCN(C(=O)CNC(=O)/C=C/c2ccc(C(F)(F)F)cc2)CC1` [Comparative Example compound 3, reference compound], for which the IC50 is 3630 nM.
Still for that read-out and setting: for `O=C(/C=C/c1ccc(C(F)(F)F)cc1)NCC(=O)N1CCc2ncsc2C1` [Comparative Example compound 4, reference compound] the value was 5960 nM.

The assay is the same for the next values; noted with them: read-out: hERG IC50.
For the compound `O=C(/C=C/c1ccc(C(F)(F)F)cc1)NCC(=O)N1CCc2cc(C3(C(=O)O)CC3)ccc2C1` [I-166], the IC50 was greater than 30000 nM.
Same read-out and setting: for `COc1cc2c(cc1CC(=O)O)CCN(C(=O)CNC(=O)/C=C/c1ccc(C(F)(F)F)cc1)C2` [I-176] the value was greater than 30000 nM; for `O=C(O)Cc1cc2c(s1)CCN(C(=O)CNC(=O)/C=C/c1ccc(C(F)(F)F)cc1)C2` [I-178], greater than 30000 nM.
The same measure, in the same setting: for `O=C(O)CCCN1CCN(C(=O)CNC(=O)/C=C/c2ccc(C(F)(F)F)cc2F)CC1C(F)(F)F` (centres unmarked) [I-198] the value was greater than 30000 nM.
On the same count and under the same terms, for `C[C@@H]1CN(CCCC(=O)O)[C@@H](C)CN1C(=O)CNC(=O)/C=C/c1ccc(C(F)(F)F)cc1F` [I-235] the value was greater than 30000 nM.
